≈ marks a conversion by molar mass, not a printed value.
Columns and labels:
[1] = tested on: HL-60 cells; assay: CD11b expression assay by flow cytometry in HL-60 cells; assay type: cell-based, human; conditions: for Activity in the CD11b assay / EC50: HL-60 cells; for Activity in the CD11b assay: concentration-response; for EC50: Homo sapiens, HL-60, 96 h, 4-day (96 h) treatment, CD11b upregulation, read-out: EC50 [nM], %CD11b response in HL60 cells; for LipE (lipophilic efficiency): LipE = -LogEC50-cLogP, EC50 of CD11b assay in HL-60
Procedure: Cells were treated with 1000 structurally diverse small molecules selected from a commercial library. A single point testing concentration of 10 µM was used. After 4 days, cells were stained with a CD11b antibody and analysed using flow cytometry. Compounds upregulating CD11b expression greater than 10% in at least three of the cell lines were considered as potential hits. Hit confirmation was undertaken as follows: first, the hit was re-tested at 10 µM both with the CD11b antibody and an isotype control to account for nonspecific binding. Secondly, the effect of the hit on cell proliferation and viability was evaluated through staining with DAPI to evaluate the number of dead cells, and with acridine orange to detect total cell numbers. Thirdly, the induction of differentiation caused by the compounds was confirmed through morphology assessment with Giemsa staining. Finally, the molecule was resynthesised and fully characterised to confirm structural authenticity. This fresh sample was then retested in the CD11b assay to generate a concentration-response curve. The study of proliferation and morphology was performed on a panel of six cell lines: HL-60, THP-1, OCI-AML3, KG-1, Kasumi-1 and ME-1.
Thus, structure-activity relationship studies were initiated, where the potency of the new analogues was evaluated through concentration-response testing using the CD11b assay in HL-60 cells. Lipophilic efficiency (LipE), which also accounts for lipophilicity, was also used to compare the quality of the analogues. Even though multiple parameters can influence activity in a cell-based assay, LipE is a useful guide to compare analogues.
PE mouse-anti-human-CD11b/Mac-1 (ICRF44, Cat 555388) and PE-mouse-IgG1-κ-isotype control (MOPC-21, Cat 555749) were purchased from BD Bioscience. Cells were suspended in 100 μL growth media (RPMI + 10% FBS + 1% L-glutamine) at a density of 2 × 10^4 cells/well of a V-bottom 96 well plate (Corning, Cat 3894) and grown for 96 h in the presence of compound at the required concentration. After 96 h, the plate was centrifuged, media was removed, and cells were resuspended in 50 µL of blocking buffer (IMDM, no phenol red + 10% FBS) containing 2.5 μL of either CD11b or isotype control antibody and incubated on ice in the dark for 20 min. Cells were washed twice in 200 μL of staining buffer (IMDM, no phenol red + 1% FBS) before being resuspended in 200 μL of staining buffer containing 1 μg/mL of DAPI to help identify dead cells. Flow cytometry data were collected on an Attune NxT and analysed using the Attune NxT software (Life Technologies).

[2] = Semi-thermodynamic aqueous solubility; assay type: physicochemical; conditions: thermodynamic from solid
Procedure: (§1) Determination of semi-thermodynamic solubility, metabolic stability in S9 fraction, Caco-2 permeability and PPB were performed by Cyprotex Ltd. (www.cyprotex.com, accessed on 22 October 2021) using their standard assays and as described on their website.

[3] = Metabolic stability in mouse S9 fraction; assay type: in vitro ADME; conditions: ER = Clint/species flow rate (mice: 90 mL/min/kg)
Procedure: as §1
[22] Extraction ratio (ER) is calculated as the measured intrinsic clearance over the hepatic blood flow of each species (90 mL/min/kg for mice). It has the advantage over other parameters (half-life, clearance) that it is independent of the species used

[4] = Single dose PK study in male CD-1 mice; assay type: in vivo, mouse
Excerpt: In order to undertake a preliminary assessment of the pharmacokinetic (PK) profile of this compound class, three compounds were deemed to have sufficient intrinsic potency, solubility and in vitro metabolic stability properties to progress into a single dose in vivo PK study. […] […] […] Nonetheless, the clearance of the three compounds was high to moderate, and at this dose the in vitro EC50 was not reached.
Male CD-1 mice were used for the PK studies, with three for each treatment. […] Blood concentration was measured by LC-MS/MS over 24 h.

[5] = aqueous (buffer or water not specified)
[6] = mouse, whole blood, single dose 3 mg/kg po, blood
[7] = aqueous (not further specified)

Structure (SMILES)	EC50 [1]	solubility thermodynamic [2, 5]	ER in mS9 (extraction ratio) [3]	LipE (lipophilic efficiency) [1]	further results
CS(=O)(=O)Nc1cccc(-c2ccc3c(c2)NC(=O)COC3)c1 [Compound 6, N-(3-(2-Oxo-1,2,3,5-tetrahydrobenzo[e][1,4]oxazepin-8-yl)phenyl)methanesulfonamide]	> 10000 nM	> 200 µM			Activity in the CD11b assay [1]: completely inactive
CN1C(=O)COCc2ccc(-c3cccc(NS(C)(=O)=O)c3)cc21 [Compound 7, N-(3-(1-Methyl-2-oxo-1,2,3,5-tetrahydrobenzo[e][1,4]oxazepin-8-yl)phenyl)methanesulfonamide]	> 30000 nM	> 200 µM	0.07		Activity in the CD11b assay [1]: completely inactive
CCN1C(=O)COCc2ccc(-c3cccc(NS(C)(=O)=O)c3)cc21 [Compound 8, N-(3-(1-Ethyl-2-oxo-1,2,3,5-tetrahydrobenzo[e][1,4]oxazepin-8-yl)phenyl)methanesulfonamide]	6200 nM	> 200 µM	0.25	3.8	
CC(C)CN1C(=O)COCc2ccc(-c3cccc(NS(C)(=O)=O)c3)cc21 [Compound 10, N-(3-(1-Isobutyl-2-oxo-1,2,3,5-tetrahydrobenzo[e][1,4]oxazepin-8-yl)phenyl)methanesulfonamide]	740 nM	> 200 µM	0.51	4.0	
CS(=O)(=O)Nc1cccc(-c2ccc3c(c2)N(C2CCCC2)C(=O)COC3)c1 [Compound 12, N-(3-(1-Cyclopentyl-2-oxo-1,2,3,5-tetrahydrobenzo[e][1,4]oxazepin-8-yl)phenyl)methanesulfonamide]	650 nM	124 µM (≈ 49.7 µg/mL)	0.83	4.0	
CS(=O)(=O)Nc1cccc(-c2ccc3c(c2)N(C2COC2)C(=O)COC3)c1 [Compound 13, N-(3-(1-(Oxetan-3-yl)-2-oxo-1,2,3,5-tetrahydrobenzo[e][1,4]oxazepin-8-yl)phenyl)methanesulfonamide]	> 10000 nM	10 µM (≈ 3.88 µg/mL)	0.08		
CS(=O)(=O)Nc1cccc(-c2ccc3c(c2)N(c2ccccc2)C(=O)COC3)c1 [Compound 14, N-(3-(2-Oxo-1-phenyl-1,2,3,5-tetrahydrobenzo[e][1,4]oxazepin-8-yl)phenyl)methanesulfonamide]	220 nM	14 µM (≈ 5.72 µg/mL)		3.9	bioavailability ([4]; mouse, whole blood, 3 mg/kg po vs 0.33 mg/kg iv): 15%; half-life ([4]; mouse, whole blood, single dose 3 mg/kg po and 0.33 mg/kg iv, blood, route of parameter not given): 246 min; Cmax [4, 6]: 44 ng/mL; Tmax [4, 6]: 1.2 h; Vd/F ([4]; mouse, whole blood, single dose 3 mg/kg po, blood, read-out: Vz/F): 100 L/kg; Clobs ([4]; single dose 0.33 mg/kg iv, blood): 43 mL/min/kg; Clobs/F ([4]; single dose 3 mg/kg po, blood): 286 mL/min/kg; Clearance ([4]; single dose iv 0.33 mg/kg and po 3 mg/kg): lowest clearance
CC(C)N1C(=O)COCc2ccc(-c3ccc(NS(C)(=O)=O)cc3)cc21 [Compound 26, N-(4-(1-Isopropyl-2-oxo-1,2,3,5-tetrahydrobenzo[e][1,4]oxazepin-8-yl)phenyl)methanesulfonamide]	> 30000 nM				
CC(C)N1C(=O)COCc2ccc(-c3cccc(S(C)(=N)=O)c3)cc21 (stereo not shown) [Compound 27, 1-Isopropyl-8-(3-(S-methylsulfonimidoyl)phenyl)-1,5-dihydrobenzo[e][1,4]oxazepin-2(3H)-one]	> 30000 nM				Activity in the CD11b assay [1]: removed the activity
COC(=O)Nc1cccc(-c2ccc3c(c2)N(C(C)C)C(=O)COC3)c1 [Compound 28, Methyl (3-(1-isopropyl-2-oxo-1,2,3,5-tetrahydrobenzo[e][1,4]oxazepin-8-yl)phenyl)carbamate]	500 nM		0.31	3.7	Activity in the CD11b assay [1]: equally active; solubility thermodynamic [2, 7]: 88 µM (≈ 31.2 µg/mL)
CC(C)N1C(=O)COCc2ccc(-c3cccc(N)c3)cc21 [Compound 29, 8-(3-Aminophenyl)-1-isopropyl-1,5-dihydrobenzo[e][1,4]oxazepin-2(3H)-one]	3300 nM			3.5	
CC(C)N1C(=O)COCc2ccc(-c3cccc(N(C)C)c3)cc21 [Compound 30, 8-(3-(Dimethylamino)phenyl)-1-isopropyl-1,5-dihydrobenzo[e][1,4]oxazepin-2(3H)-one]	12000 nM			2.4	
COc1cccc(-c2ccc3c(c2)N(C(C)C)C(=O)COC3)c1 [Compound 31, 1-Isopropyl-8-(3-methoxyphenyl)-1,5-dihydrobenzo[e][1,4]oxazepin-2(3H)-one]	> 10000 nM				
CC(C)N1C(=O)COCc2ccc(-c3cccc(C(=O)O)c3)cc21 [Compound 32, 3-(1-Isopropyl-2-oxo-1,2,3,5-tetrahydrobenzo[e][1,4]oxazepin-8-yl)benzoic acid]	> 30000 nM				
CCCS(=O)(=O)Nc1cccc(-c2ccc3c(c2)N(C(C)C)C(=O)COC3)c1 [Compound 33, N-(3-(1-Isopropyl-2-oxo-1,2,3,5-tetrahydrobenzo[e][1,4]oxazepin-8-yl)phenyl)propane-1-sulfonamide]	6800 nM			2.5	Decrease in potency compared to OXS007002 ([1]; CD11b EC50 in HL-60, vs OXS007002): 10 fold
CC(C)N1C(=O)COCc2ccc(-c3cccc(NS(=O)(=O)C(F)(F)F)c3)cc21 [Compound 34, 1,1,1-Trifluoro-N-(3-(1-isopropyl-2-oxo-1,2,3,5-tetrahydrobenzo[e][1,4]oxazepin-8-yl)phenyl)methanesulfonamide]	> 10000 nM				
CC(C)N1C(=O)COCc2ccc(-c3ccc(F)c(NS(C)(=O)=O)c3)cc21 [Compound 35, N-(2-Fluoro-5-(1-isopropyl-2-oxo-1,2,3,5-tetrahydrobenzo[e][1,4]oxazepin-8-yl)phenyl)methanesulfonamide]	1600 nM		0.21	4.0	solubility thermodynamic [2, 7]: > 200 µM
Cc1ccc(-c2ccc3c(c2)N(C(C)C)C(=O)COC3)cc1NS(C)(=O)=O [Compound 36, N-(5-(1-Isopropyl-2-oxo-1,2,3,5-tetrahydrobenzo[e][1,4]oxazepin-8-yl)-2-methylphenyl)methanesulfonamide]	600 nM		1	4.1	solubility thermodynamic [2, 7]: > 200 µM
COc1cc(NS(C)(=O)=O)cc(-c2ccc3c(c2)N(C(C)C)C(=O)COC3)c1 [Compound 38, N-(3-(1-Isopropyl-2-oxo-1,2,3,5-tetrahydrobenzo[e][1,4]oxazepin-8-yl)-5-methoxyphenyl)methanesulfonamide]	> 30000 nM				
CC(C)N1C(=O)COCc2ccc(-c3cncc(NS(C)(=O)=O)c3)cc21 [Compound 39, N-(5-(1-Isopropyl-2-oxo-1,2,3,5-tetrahydrobenzo[e][1,4]oxazepin-8-yl)pyridin-3-yl)methanesulfonamide]	> 30000 nM				Activity in the CD11b assay [1]: abolished activity
CC(C)N1C(=O)COCc2ccc(Oc3cccc(NS(C)(=O)=O)c3)cc21 [Compound 40, N-(3-((1-Isopropyl-2-oxo-1,2,3,5-tetrahydrobenzo[e][1,4]oxazepin-8-yl)oxy)phenyl)methanesulfonamide]	> 30000 nM				Activity in the CD11b assay [1]: abolished activity
